{
  "source": "patent US12428396B2",
  "about": "“Fused pyridine ring derivative, preparation method therefor, and pharmaceutical use thereof” (priority 2019, dated 2025)",
  "key": {"HIV-1 capsid protein": {"target": "T1, HIV-1 capsid protein (Human immunodeficiency virus type 1 group M subtype B, UniProt P12493)", "T1 construct": "made in house; host or cells: E. coli (pET30 vector)", "assay": "In vitro polymerization of HIV-1 capsid protein (His-CA/GST-CA, Eu cryptate/XL665 energy transfer)", "type": "biochemical, HIV-1 NL4-3", "excerpt": "• 1. MAb Anti GST-Eu cryptate (Cisbio) • 2. MAb Anti 6HIS-XL665 (Cisbio) • 3. His tag HIV-1 capsid protein (hereinafter referred to as His-CA) • 4. GST tag HIV-1 capsid protein (hereinafter referred to as GST-CA) • 5. 384-well unbound surface microplate, white (Corning) • 6. Microplate reader (BMG)\nThe HIV-1 capsid proteins aggregate spontaneously in high-salt solutions. Capsid protein sequences derived from HIV-1 NL4-3 strains (GeneBank AF324493.2) were separately tagged with 6His tag and GST tag sequences at the C-terminus, cloned into pET30 vectors, and expressed and separately tagged for expression in E. coli system and purified. His-CA and GST-CA were mixed at high-salt concentrations, and the level of polymerization of capsid proteins was detected using GST antibody labeled with Eu3+-Cryptate (energy donor) and His antibody labeled with XL665 (energy acceptor). Since the excitation spectrum of Eu3+-Cryptate overlapped with the excitation spectrum of XL665, when the capsid proteins with these two tags formed a poly complex, the energy donor and the energy acceptor could be drawn to a sufficiently close distance, the energy donor released part of the captured energy under the excitation of an external light source (such as a xenon lamp or a laser), with the emission wavelength being 620 nM, part of the resonance was transferred to the energy acceptor to excite the energy acceptor, with the emission wavelength being 665 nM, and an optical signal was generated, the signal intensity of which was in direct proportion to the degree of polymerization of the tag proteins.\nHis-CA was diluted to 2 μM in a clean tube with protein diluent (50 mM Tris-HCl, pH 8.0, 50 mM NaCl, 0.4 mM MgCl2, 0.05% Triton X-100, 2% glycerol) while MAb Anti 6HIS-XL665 at a final concentration of 260 nM was added; GST-CA was diluted to 20 nM with protein diluent in another clean tube while MAb Anti GST-Eu cryptate at a final concentration of 3.33 nM was added and incubated on ice for half an hour. Compounds were first formulated into a concentration of 20 mM with DMSO, then diluted to a first concentration of 2 mM with DMSO and serially 5-fold diluted to the 8th concentration. Control wells were set and added with DMSO, and serially-diluted compounds were then 20-fold diluted with protein diluent to 10-fold working concentrations. Preparation of capsid protein polymerization liquid at 2-fold concentration: 50 mM Tris-HCl, pH 8.0, 1 M NaCl, 800 mM KF; to a pre-cooled white round-bottomed 384-well plate were added 4 uL of His-CA-His antibody mixture, 4 uL of GST-CA-GST antibody mixture, 2 uL of the compounds at 10-fold concentration and 10 uL of capsid protein polymerization reaction liquid at 2-fold concentration, the plate was sealed with a light-shielding sealing plate membrane after uniformly mixing, and the reaction plate was placed in a 37° C. incubator for incubation for 2 h. After incubation, the samples were excited with an excitation light at 337 nM, and signal values at 620 nM and 665 nM were collected for detection, wherein Ratio values=(665 nM/620 nM signal)×10000 was calculated according to the signal values. IC50 values for compounds were calculated using Graphpad Prism software based on each concentration of the compounds and the corresponding Ratio values."}, "[1]": {"assay": "Monkey pharmacokinetic study (iv, plasma LC/MS/MS)", "type": "in vivo, cynomolgus monkeys", "settings": "cynomolgus monkey, intravenous injection, 1 mg/kg", "method": "Taking cynomolgus monkeys as test animals and the drug concentrations in monkey plasma at various times after intravenous injection (iv) of the compounds of Example 1-1 and Positive Control Example 1 were measured by using LC/MS/MS method. The pharmacokinetic performance in cynomolgus monkeys of the compounds of the present disclosure was studied and the pharmacokinetic profile thereof was evaluated.\n6 non-naïve cynomolgus monkeys (999M-004, medicilon) with 2-5 kg, every 3 of which were in one group.\nA certain amount of the compounds was weighed, 5% volume of DMSO, 30% PG, 30% PEG400 and 35% volume of normal saline were added, and the reaction mixture was subjected to vortex ultrasonic stirring for uniform mixing to give a clean administration solution at a concentration of 0.5 mg/mL.\nMonkeys were intravenously injected with the compounds after fasting overnight, at a dose of 1.0 mg/kg and a volume of 2 mL/kg.\nThe compound of Example 1-1/Positive Control Example 1 was intravenously injected to monkeys, and 1 mL of blood was collected through femoral vein before administration and at 5 min, 0.25 h, 0.5 h, 1.0 h, 2.0 h, 4.0 h, 8.0 h, 12.0 h, 24 h, 32 h, 48 h, 56 h and 72 h after administration, respectively, and placed in EDTA-K2 anticoagulant blood collection tubes, plasma was centrifuged (centrifugal force: 2200 g, centrifugal time: 10 min, 2-8° C.), and stored at −80° C., and food intake was resumed 3 h after administration."}, "[2]": {"assay": "Thermodynamic stability test of atropisomerism (LC-MS)", "type": "physicochemical", "method": "Agilent 1200 DAD model LC-MS; column: waters sunfire C18, 4.6×75 mm, 3.5 μm; mobile phase: water (0.1% trifluoroacetic acid):acetonitrile (0.1% trifluoroacetic acid).\nThe compounds of Examples 1-1a, 1-1b were atropisomers of each other and had different retention times in the LC-MS spectra, and the tautomerism of the atropisomers could be detected by LC-MS.\nCompound 1-1a (1.5 mg) was dissolved in acetonitrile (1.0 mL), and the reaction solution was heated at 40° C. for 1.0 h, and the change in purity of compound 1-1a was detected by LC-MS. Compound 1-1a (1.5 mg) was dissolved in dimethyl sulfoxide (1.0 mL), and the reaction solution was heated at 120° C. for 3.0 h, and the change in purity of compound 1-1a was detected by LC-MS.\nThe same procedure was used to test the change in purity of compound 1-1b at 40° C. and 120° C.\nThe compounds of Examples 5-1, 5-2 were atropisomers of each other and had different retention times in the LC-MS spectra, and the tautomerism of the atropisomers could be detected by LC-MS.\nCompound 5-1 (1.0 mg) was dissolved in DMSO (1.0 mL), and the reaction solution was heated at 37° C. and 120° C. for 3.0 h, respectively, and the change in purity of compound 5-1 was detected by LC-MS."}},
  "data": [
    {"compound": "CC(C)(C#Cc1nc([C@H](Cc2cc(F)cc(F)c2)NC(=O)Cn2nc(C(F)(F)F)c3c2C(F)(F)[C@@H]2C[C@H]32)c(-c2ccc(Cl)c3c(NS(C)(=O)=O)nn(CC(F)(F)F)c23)c2c1CCC2)S(C)(=O)=O", "note": "(atropisomer, axis not shown; (aR)) [Example 1-1, N—((S)-1-((R)-4-(4-chloro-3-(methanesulfonamide)-1-(2,2,2-trifluoroethyl)-1H-indazol-7-yl)-1-(3-methyl-3-(methylsulfonyl)but-1-yn-1-yl)-6,7-dihydro-5H-cyclopenta[c]pyridin-3-yl)-2-(3,5-difluorophenyl)ethyl)-2-((3bS,4aR)-5,5-difluoro-3-(trifluoromethyl)-3b,4,4a,5-tetrahydro-1H-cyclopropa[3,4]cyclopenta[1,2-c]pyrazol-1-yl)acetamide]", "values": [
      {"measurement": "IC50", "setting": "HIV-1 capsid protein", "value": 9, "unit": "nM"},
      {"measurement": "Imax", "setting": "HIV-1 capsid protein; 37° C., 2 h incubation", "value": 100, "unit": "%"},
      {"measurement": "Clearance CLz/F", "setting": "[1]", "value": 2.0, "unit": "mL/min/kg"},
      {"measurement": "AUC(0-t)", "setting": "[1]; plasma, read-out: Area under curve AUC0-72", "value": 8520, "unit": "ng·h/mL"},
      {"measurement": "atropisomer stability (change in purity by LC-MS)", "setting": "[2]; heated at 40° C. for 1.0 h in acetonitrile", "value": "stable single-configuration compounds"},
      {"measurement": "atropisomer stability (change in purity by LC-MS)", "setting": "[2]; heated at 120° C. for 3.0 h in dimethyl sulfoxide", "value": "stable single-configuration compounds"}
    ]}
  ]
}
